From ChEMBL document CHEMBL5032528, “Development of novel tetrahydroisoquinoline-hydroxamate conjugates as potent dual SERDs/HDAC inhibitors for the treatment of breast cancer” (Eur J Med Chem, 2021)
pIC50: −log10 of the molar value. Active and inactive are the calls of the source. No cut-off for these calls is given here.

Assays:
MCF7 [1] = experiment: Antiproliferative activity against human MCF7 cells assessed as reduction in cell growth measured after 6 days by WST8 assay; format: functional; conditions: time 6 day
Ishikawa [2] = experiment: Induction of human ishikawa cells proliferation at 300 nM measured after 48 hrs by CCK8 assay; format: functional
[3] = Lipophilicity, logD of compound in n-octanol and phosphate buffer at pH 7.4 after 1.5 hrs by HPLC analysis; format: physicochemical
[4] = Stability in human liver microsomes assessed as half life; format: ADME, Microsome
in vitro = conditions: human, liver microsomes
[5] = biological target: T1, Protein deacetylase HDAC6 (Homo sapiens, UniProt Q9UBN7); experiment: Inhibition of HDAC6 (unknown origin) using Ac-peptide as substrate preincubated for 15 mins followed by substrate addition and measured after 60 mins by fluorescence assay
T1 sequence (Q9UBN7 whole entry): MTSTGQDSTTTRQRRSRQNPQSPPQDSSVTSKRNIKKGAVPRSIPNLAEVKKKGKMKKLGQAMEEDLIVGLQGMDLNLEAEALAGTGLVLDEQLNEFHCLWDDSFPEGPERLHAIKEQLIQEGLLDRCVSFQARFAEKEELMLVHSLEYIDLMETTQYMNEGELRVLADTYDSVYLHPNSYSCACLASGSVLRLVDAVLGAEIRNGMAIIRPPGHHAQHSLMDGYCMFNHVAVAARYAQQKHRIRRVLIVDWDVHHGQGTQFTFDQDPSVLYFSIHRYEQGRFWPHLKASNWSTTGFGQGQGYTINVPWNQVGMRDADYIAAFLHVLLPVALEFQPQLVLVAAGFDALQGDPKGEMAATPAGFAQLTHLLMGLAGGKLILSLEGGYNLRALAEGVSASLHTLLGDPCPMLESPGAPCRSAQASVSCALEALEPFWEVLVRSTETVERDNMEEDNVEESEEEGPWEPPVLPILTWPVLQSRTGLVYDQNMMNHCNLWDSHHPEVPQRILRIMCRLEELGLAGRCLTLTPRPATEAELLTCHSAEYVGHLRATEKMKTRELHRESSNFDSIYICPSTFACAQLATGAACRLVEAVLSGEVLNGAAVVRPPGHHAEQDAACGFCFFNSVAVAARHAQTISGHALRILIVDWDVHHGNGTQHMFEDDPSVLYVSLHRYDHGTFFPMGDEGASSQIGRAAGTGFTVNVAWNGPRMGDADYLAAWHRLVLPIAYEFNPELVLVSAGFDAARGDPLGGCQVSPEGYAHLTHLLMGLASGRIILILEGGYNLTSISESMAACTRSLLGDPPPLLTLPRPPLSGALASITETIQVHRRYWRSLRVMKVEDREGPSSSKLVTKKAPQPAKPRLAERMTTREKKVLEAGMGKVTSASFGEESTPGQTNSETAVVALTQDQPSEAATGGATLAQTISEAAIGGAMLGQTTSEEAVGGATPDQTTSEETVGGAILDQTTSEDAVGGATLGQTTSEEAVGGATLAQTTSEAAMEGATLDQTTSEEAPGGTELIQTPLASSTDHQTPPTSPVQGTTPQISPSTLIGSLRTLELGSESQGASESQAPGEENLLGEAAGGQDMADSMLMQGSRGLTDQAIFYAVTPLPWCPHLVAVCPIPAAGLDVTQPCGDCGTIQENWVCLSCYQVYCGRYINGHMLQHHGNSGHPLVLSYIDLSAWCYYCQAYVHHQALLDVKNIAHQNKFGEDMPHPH

Histone deacetylase 1 = Histone deacetylase 1 (Homo sapiens, UniProt Q13547); experiment: Inhibition of HDAC1 (unknown origin)
Histone deacetylase 4 = Histone deacetylase 4 (Homo sapiens, UniProt P56524); experiment: Inhibition of HDAC4 (unknown origin)
Estrogen receptor = biological target: T2, Estrogen receptor (Homo sapiens, UniProt P03372); experiment: Displacement of fluorescent estradiol from full-length ERalpha (unknown origin) measured after 2 hrs by fluorescence polarization assay
T2 sequence (P03372 whole entry): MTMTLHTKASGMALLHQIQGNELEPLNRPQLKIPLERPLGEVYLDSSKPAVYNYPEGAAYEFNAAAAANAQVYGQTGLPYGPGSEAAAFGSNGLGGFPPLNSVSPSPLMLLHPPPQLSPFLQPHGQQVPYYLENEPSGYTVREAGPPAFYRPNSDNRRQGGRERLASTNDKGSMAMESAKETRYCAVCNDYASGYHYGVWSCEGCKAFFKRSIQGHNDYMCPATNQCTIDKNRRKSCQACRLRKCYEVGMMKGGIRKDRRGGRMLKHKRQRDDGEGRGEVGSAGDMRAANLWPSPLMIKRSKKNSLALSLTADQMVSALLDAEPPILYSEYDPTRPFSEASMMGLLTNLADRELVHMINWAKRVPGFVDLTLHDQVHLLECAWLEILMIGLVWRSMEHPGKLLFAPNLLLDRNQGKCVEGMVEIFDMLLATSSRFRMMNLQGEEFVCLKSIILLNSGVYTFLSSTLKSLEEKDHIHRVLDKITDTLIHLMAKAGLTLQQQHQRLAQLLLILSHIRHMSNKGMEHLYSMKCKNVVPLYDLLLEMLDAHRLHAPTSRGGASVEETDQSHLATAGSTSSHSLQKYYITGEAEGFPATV

[6] = biological target: T3, Estrogen receptor (Homo sapiens) (UniProt P03372); experiment: Inhibition of ERalpha signaling in human MCF7 cells measured after 24 hrs by Western blot assay; format: cell-based; conditions: dose 10-10000 nM
T3 sequence (whole entry): T2 sequence (P03372 whole entry)

[7] = biological target: T3, Estrogen receptor (Homo sapiens); experiment: Induction of ERalpha degradation in human MCF7 cells at 0.1 uM measured after 24 hrs by Western blot analysis; format: cell-based
MCF7 [8] = experiment: Antitumor activity against human MCF7 cells xenografted in BALB/c nude mouse assessed as TGI at 5 mg/kg/day, iv administered for 21 days; format: functional; conditions: 504 h, time 21 day, read-out: TGI
[9] = biological target: T4, Protein deacetylase HDAC6 (Homo sapiens) (UniProt Q9UBN7); experiment: Inhibition of HDAC6 in human MCF7 cells assessed as increase in intracellular acetylation level of alpha-tubulin after 24 hrs by Western blot analysis; format: cell-based; conditions: dose 10-1000 nM
T4 sequence (whole entry): T1 sequence (Q9UBN7 whole entry)

[10] = biological target: T3, Estrogen receptor (Homo sapiens); experiment: Antagonist activity at ERalpha in human MCF7 cells assessed as reduction in E2-induced PGR gene expression incubated for 24 hrs by qRT-PCR analysis; format: cell-based; conditions: filed as antagonist, dose 3-300 nM
[11] = biological target: T3, Estrogen receptor (Homo sapiens); experiment: Antagonist activity at ERalpha in human MCF7 cells assessed as reduction in E2-induced GREB1 gene expression incubated for 24 hrs by qRT-PCR analysis; format: cell-based; conditions: filed as antagonist, dose 3-300 nM
MCF7 [12] = experiment: Induction of apoptosis in human MCF7 cells at 0.1 uM incubated for 24 hrs by PI staining based flow cytometry analysis; format: functional, cell-based
[13] = biological target: T3, Estrogen receptor (Homo sapiens); experiment: Antagonist activity at ERalpha activity in human ishikawa cells assessed as reduction in PGR mRNA expression at 10 to 300 nM for 24 hrs; format: cell-based; conditions: filed as antagonist, dose 10-300 nM
Ishikawa [14] = experiment: Induction of human ishikawa cells proliferation at 39 to 10000 nM measured after 48 hrs by CCK8 assay; format: functional; conditions: dose 39-10000 nM
MDA-MB-231 [15] = experiment: Antiproliferative activity against human MDA-MB-231 cells assessed as reduction in cell growth measured after 2 days by CCK8 assay; format: functional, cell-based; conditions: MDA-MB-231, 48 h
[16] = biological target: Histone deacetylase (Homo sapiens) (UniProt Q13547+O15379+Q9UBN7+Q92769+Q9UQL6+Q8WUI4+Q9BY41+Q96DB2+P56524+Q9UKV0+Q969S8); experiment: Inhibition of HDAC in human MDA-MB-231 cells assessed as increase in alpha tubulin acetylation after 24 hrs by immunofluorescence assay; format: cell-based; conditions: dose 5.0 µM
MDA-MB-231 [17] = experiment: Antimigratory activity against human MDA-MB-231 cells measured after 48 hrs by scratch wound-healing assay; format: functional, cell-based
[18] = Stability in human plasma assessed as half life; format: ADME, cell-free
[19] = Toxicity in Balb/c mouse xenografted with human MCF7 cells assessed as body weight loss at 5 mg/kg/day, iv administered for 21 days; format: organism-based; conditions: in vivo, 504 h, time 21 day
Mus musculus = experiment: In vivo induction of ERalpha degradation in human […] cells xenografted in BALB/c mouse assessed as decrease in ERalpha level at 5 mg/kg/day, iv administered for 21 days by Western blot analysis; format: functional, organism-based; conditions: time 21.0 day
[20] = biological target: T3, Estrogen receptor (Homo sapiens); experiment: Inhibition of ERalpha signaling in human MCF7 cells at 1 uM measured after 24 hrs by Western blot assay; format: cell-based
[21] = biological target: T3, Estrogen receptor (Homo sapiens); experiment: Inhibition of ERalpha signaling in human MCF7 cells at 10 uM measured after 24 hrs by Western blot assay; format: cell-based
[22] = Toxicity in Balb/c mouse xenografted with human MCF7 cells assessed as change in organ morphology at 5 mg/kg/day, iv administered for 21 days by H and E staining based analysis; format: organism-based; conditions: in vivo, 504 h, time 21 day

Histone deacetylase 1, sequence (Q13547 whole entry): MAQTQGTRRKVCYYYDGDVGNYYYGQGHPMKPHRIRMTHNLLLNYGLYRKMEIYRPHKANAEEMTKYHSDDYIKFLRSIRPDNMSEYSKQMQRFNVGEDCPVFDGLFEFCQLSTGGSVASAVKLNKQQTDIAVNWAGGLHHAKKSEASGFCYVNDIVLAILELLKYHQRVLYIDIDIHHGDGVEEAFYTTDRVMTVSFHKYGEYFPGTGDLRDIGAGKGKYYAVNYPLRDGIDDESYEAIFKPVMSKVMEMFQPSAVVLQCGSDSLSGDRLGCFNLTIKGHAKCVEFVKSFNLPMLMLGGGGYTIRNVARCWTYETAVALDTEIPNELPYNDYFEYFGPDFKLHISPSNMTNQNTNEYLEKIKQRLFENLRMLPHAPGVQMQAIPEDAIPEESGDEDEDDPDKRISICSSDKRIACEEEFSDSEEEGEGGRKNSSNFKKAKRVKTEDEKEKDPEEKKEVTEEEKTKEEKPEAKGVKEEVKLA
Histone deacetylase 4, sequence (P56524 whole entry): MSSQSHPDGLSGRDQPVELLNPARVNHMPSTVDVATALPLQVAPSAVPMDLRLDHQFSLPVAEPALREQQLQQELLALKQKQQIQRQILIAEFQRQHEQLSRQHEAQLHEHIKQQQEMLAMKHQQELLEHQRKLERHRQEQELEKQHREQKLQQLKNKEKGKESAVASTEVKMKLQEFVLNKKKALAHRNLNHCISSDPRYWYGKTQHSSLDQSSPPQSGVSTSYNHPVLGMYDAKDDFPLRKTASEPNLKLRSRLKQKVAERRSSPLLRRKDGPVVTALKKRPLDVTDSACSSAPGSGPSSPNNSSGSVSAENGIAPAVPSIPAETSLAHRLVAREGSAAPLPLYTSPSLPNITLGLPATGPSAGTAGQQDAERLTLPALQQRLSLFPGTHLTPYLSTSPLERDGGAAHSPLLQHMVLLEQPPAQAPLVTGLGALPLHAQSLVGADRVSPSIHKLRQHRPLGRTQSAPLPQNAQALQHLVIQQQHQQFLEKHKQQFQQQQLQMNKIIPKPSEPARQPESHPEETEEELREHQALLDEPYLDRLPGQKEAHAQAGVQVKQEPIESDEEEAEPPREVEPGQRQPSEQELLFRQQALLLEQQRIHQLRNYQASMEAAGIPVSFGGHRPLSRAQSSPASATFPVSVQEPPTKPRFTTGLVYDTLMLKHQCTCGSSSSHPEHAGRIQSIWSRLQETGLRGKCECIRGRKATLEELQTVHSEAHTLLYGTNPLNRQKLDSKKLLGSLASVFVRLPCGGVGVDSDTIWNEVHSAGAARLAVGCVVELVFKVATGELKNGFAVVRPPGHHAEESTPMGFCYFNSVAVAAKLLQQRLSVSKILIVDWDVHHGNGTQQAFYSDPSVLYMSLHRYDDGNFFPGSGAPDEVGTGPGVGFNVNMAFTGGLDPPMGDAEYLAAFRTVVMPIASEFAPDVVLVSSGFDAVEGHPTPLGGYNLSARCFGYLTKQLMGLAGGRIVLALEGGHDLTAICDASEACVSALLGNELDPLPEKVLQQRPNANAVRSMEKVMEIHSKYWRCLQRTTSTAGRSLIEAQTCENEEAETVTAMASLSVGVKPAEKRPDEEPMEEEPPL

Compound: C[C@]12CC[C@@H]3c4ccc(O)cc4C[C@@H](CCCCCCCCC[S+]([O-])CCCC(F)(F)C(F)(F)F)[C@H]3[C@@H]1CC[C@@H]2O (stereo partly specified) [FULVESTRANT]
- GI50 (MCF7 [1]; Homo sapiens, MCF7, 144 h): 540 nM
- Activity (Ishikawa [2]): Active
- logD at 1.5 h [3]: 6.8
- half-life [4]: 1.56 min
- CLint scaled (in vitro): 1150 mL/min/kg

Compound: CC(C)(F)CN1CCc2cc(O)ccc2C1c1ccc(OCCCCCCC(=O)NO)cc1 (stereo unspecified)
- pIC50 [5]: 7.20
- pIC50 (Histone deacetylase 1): 6.23
- pIC50 (Histone deacetylase 4): < 6.00
- pIC50 (Estrogen receptor): 7.04
- inhibition [6]: Dose-Dependent Effect
- GI50 (MCF7 [1]; Homo sapiens, MCF7, 144 h): 170 nM
- Activity [7]: 57%
- inhibition in vivo at 5 mg/kg/day (MCF7 [8]): 58%
- inhibition [9]: Dose-Dependent Effect
- Activity [10]: Dose-Dependent Effect
- Activity [11]: Dose-Dependent Effect
- Activity (MCF7 [12]): Active
- Activity [13]: Active
- Activity (Ishikawa [14]): inactive
- pIC50 (MDA-MB-231 [15]): 6.42
- inhibition [16]: Dose-Dependent Effect
- Activity (MDA-MB-231 [17]): Active
- logD at 1.5 h [3]: 2.49
- half-life [4]: 18.8 min
- half-life [18]: 458 min
- Activity [19]: Non-Toxic
- inhibition (Mus musculus): Active
- inhibition [20]: Active
- inhibition [21]: 100%
- Activity [22]: Non-Toxic
- CLint scaled (in vitro): 132 mL/min/kg

Compound: O=C(CCCCCCC(=O)Nc1ccccc1)NO [VORINOSTAT]
- GI50 (MCF7 [1]): 1250 nM

Compound: CC(C)(F)CN1CCc2cc(O)ccc2C1c1ccc(OC2CN(CC(=O)NO)C2)cc1 (stereo unspecified)
- pIC50 [5]: 6.76
- pIC50 (Estrogen receptor): 7.11
- GI50 (MCF7 [1]; Homo sapiens, MCF7, 144 h): 1820 nM
- Activity [7]: 32%

Compound: CC(C)(F)CN1CCc2cc(O)ccc2C1c1ccc(C(=O)NO)cc1 (stereo unspecified)
- pIC50 (Estrogen receptor): 7.02
- GI50 (MCF7 [1]; Homo sapiens, MCF7, 144 h): 230 nM
- Activity [7]: 5%

Compound: CC(C)(F)CN1CCc2cc(O)ccc2C1c1ccc(OCCCOc2ccc(C(=O)NO)cc2)cc1 (stereo unspecified)
- pIC50 (Estrogen receptor): 6.88
- GI50 (MCF7 [1]; Homo sapiens, MCF7, 144 h): 460 nM
- Activity [7]: inactive

Compound: CC(C)(F)CN1CCc2cc(O)ccc2C1c1ccc(OCCCCCC(=O)NO)cc1 (stereo unspecified)
- pIC50 [5]: 7.18
- pIC50 (Estrogen receptor): 6.99
- GI50 (MCF7 [1]; Homo sapiens, MCF7, 144 h): 950 nM
- Activity [7]: 31%
